Reference: the NIST ThermoML archive (doi:10.1016/j.jct.2014.06.004)
± gives the expanded uncertainty stated by the source.

How the values were obtained:
[1] = xn = mol fraction of the nth substance listed; settings: 100 kPa, Liquid; for mass density: Vibrating tube method; for speed of sound: Frequency=3 MHz, Sing-around technique in a fixed-path interferometer
[2] = refractive index (Na D-line) (dimensionless); xn = mol fraction of the nth substance listed; settings: 100 kPa, Liquid, Standard Abbe refractometry

CCCCCCC(=O)O [heptanoic acid] + CCCC(=O)O
Settings	mass density, [1] [kg/m3]	refractive index, [2]	speed of sound, [1] [m/s]
293.15 K, x1 = 0.0559	–	1.4005 ± 0.0005	–
293.15 K, x1 = 0.1059	–	1.4024 ± 0.0005	–
293.15 K, x1 = 0.2061	–	1.4054 ± 0.0005	–
293.15 K, x1 = 0.3087	–	1.4084 ± 0.0005	–
293.15 K, x1 = 0.4037	–	1.4109 ± 0.0005	–
293.15 K, x1 = 0.5037	–	1.4134 ± 0.0005	–
293.15 K, x1 = 0.6006	–	1.4157 ± 0.0005	–
293.15 K, x1 = 0.7049	–	1.4179 ± 0.0005	–
293.15 K, x1 = 0.805	–	1.4199 ± 0.0005	–
293.15 K, x1 = 0.9052	–	1.4217 ± 0.0005	–
293.15 K, x1 = 0.9575	–	1.4226 ± 0.0005	–
293.15 K, x1 = 1	–	1.4234 ± 0.0005	–
298.15 K, x1 = 0.0559	–	1.3984 ± 0.0005	–
298.15 K, x1 = 0.1059	–	1.4001 ± 0.0005	–
298.15 K, x1 = 0.2061	–	1.4033 ± 0.0005	–
298.15 K, x1 = 0.3087	–	1.4063 ± 0.0005	–
298.15 K, x1 = 0.4037	–	1.4089 ± 0.0005	–
298.15 K, x1 = 0.5037	–	1.4114 ± 0.0005	–
298.15 K, x1 = 0.6006	–	1.4136 ± 0.0005	–
298.15 K, x1 = 0.7049	–	1.4159 ± 0.0005	–
298.15 K, x1 = 0.805	–	1.4179 ± 0.0005	–
298.15 K, x1 = 0.9052	–	1.4197 ± 0.0005	–
298.15 K, x1 = 0.9575	–	1.4207 ± 0.0005	–
298.15 K, x1 = 1	–	1.4214 ± 0.0005	–
303.15 K, x1 = 0.0559	–	1.3963 ± 0.0005	–
303.15 K, x1 = 0.1059	–	1.398 ± 0.0005	–
303.15 K, x1 = 0.2061	–	1.4012 ± 0.0005	–
303.15 K, x1 = 0.3087	–	1.4042 ± 0.0005	–
303.15 K, x1 = 0.4037	–	1.4068 ± 0.0005	–
303.15 K, x1 = 0.5037	–	1.4093 ± 0.0005	–
303.15 K, x1 = 0.6006	–	1.4116 ± 0.0005	–
303.15 K, x1 = 0.7049	–	1.4138 ± 0.0005	–
303.15 K, x1 = 0.805	–	1.4158 ± 0.0005	–
303.15 K, x1 = 0.9052	–	1.4177 ± 0.0005	–
303.15 K, x1 = 0.9575	–	1.4186 ± 0.0005	–
303.15 K, x1 = 1	–	1.4194 ± 0.0005	–
308.15 K, x1 = 0.0559	–	1.3942 ± 0.0005	–
308.15 K, x1 = 0.1059	–	1.3958 ± 0.0005	–
308.15 K, x1 = 0.2061	–	1.3991 ± 0.0005	–
308.15 K, x1 = 0.3087	–	1.4021 ± 0.0005	–
308.15 K, x1 = 0.4037	–	1.4047 ± 0.0005	–
308.15 K, x1 = 0.5037	–	1.4072 ± 0.0005	–
308.15 K, x1 = 0.6006	916 ± 0.3	1.4095 ± 0.0005	–
308.15 K, x1 = 0.7049	912.8 ± 0.3	1.4117 ± 0.0005	–
308.15 K, x1 = 0.805	910 ± 0.3	1.4138 ± 0.0005	–
308.15 K, x1 = 0.9052	907.4 ± 0.3	1.4157 ± 0.0005	–
308.15 K, x1 = 0.9575	906.1 ± 0.3	1.4166 ± 0.0005	–
308.15 K, x1 = 1	905.1 ± 0.3	1.4173 ± 0.0005	–
313.15 K, x1 = 0.0559	934.6 ± 0.3	1.392 ± 0.0005	1129 ± 2
313.15 K, x1 = 0.1059	931.9 ± 0.3	1.3937 ± 0.0005	1136 ± 2
313.15 K, x1 = 0.2061	926.8 ± 0.3	1.397 ± 0.0005	1148 ± 2
313.15 K, x1 = 0.3087	922.3 ± 0.3	1.4 ± 0.0005	1161 ± 2
313.15 K, x1 = 0.4037	918.5 ± 0.3	1.4026 ± 0.0005	1171 ± 2
313.15 K, x1 = 0.5037	914.8 ± 0.3	1.4051 ± 0.0005	1182 ± 2
313.15 K, x1 = 0.6006	911.6 ± 0.3	1.4074 ± 0.0005	1191 ± 2
313.15 K, x1 = 0.7049	908.4 ± 0.3	1.4097 ± 0.0005	1201 ± 2
313.15 K, x1 = 0.805	905.7 ± 0.3	1.4117 ± 0.0005	1209 ± 2
313.15 K, x1 = 0.9052	903.1 ± 0.3	1.4136 ± 0.0005	1218 ± 2
313.15 K, x1 = 0.9575	901.9 ± 0.3	1.4146 ± 0.0005	1222 ± 2
313.15 K, x1 = 1	900.9 ± 0.3	1.4153 ± 0.0005	1225 ± 2
